Reference: patent US9744148B2, “Kallikrein 7 inhibitors” (SIXERA PHARMA AB, priority 2014, dated 2017)

Molecular target: Active human KLK7 (SCCE) (Homo sapiens (Human), UniProt P49862)
Experiment: KLK7 Inhibitor Test
Type: biochemical
Conditions: substrate MeO-Suc-Arg-Pro-Tyr-pNA, pH 7.2, 37° C., absorbance at 405 nm
Protocol: KLK7 Inhibitor Test Substrate:(MeO-Suc-[…]), acetate salt, Peptide international, lot #906841, previously named S-2586 Enzyme: […] Buffer: 10 mM NaPhospate, 0.5 M NaCl, pH 7.2 […] 10 μl of substance in DMSO was added to wells giving final concentrations of 20 μ[…], and 0.15625 μM. 40 μl of active KLK7 (SCCE) (diluted to 12.5 μg/ml in activity buffer) was added all wells except blank to which activity buffer was added. […] The mean value V of each sample was calculated (n=2 for the substances and n=4 for the control). From the values of V the % of total activity was calculated as (Vinhibitor/Vcontrol (no inhibitor))×100. Plotting and calculation was then done in originPro. % of total activity (y) was plotted vs. log [inhibitor] (log x) and a function of dose response y=A1+(A2-A1)/(1+10^((LOG(x0)-x)*p)) where A1=Bottom platue, A2=Top platue, x0=EC50 and p=Hill slope was fitted to the curve. […] The IC50 values were used to identify KLK7 inhibitors according to the invention.

Active human KLK7 (SCCE), sequence (P49862 30-253): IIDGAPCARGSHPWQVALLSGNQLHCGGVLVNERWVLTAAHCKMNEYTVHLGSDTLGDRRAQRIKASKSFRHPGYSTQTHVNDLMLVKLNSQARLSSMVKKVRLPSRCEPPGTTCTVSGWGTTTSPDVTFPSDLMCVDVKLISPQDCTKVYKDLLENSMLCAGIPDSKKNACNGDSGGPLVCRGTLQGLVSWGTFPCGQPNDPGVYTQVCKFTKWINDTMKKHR

Structure (SMILES)	IC50
O=C(Cc1ccc(Cl)cc1)OC(C(=O)Nc1ccc(F)cc1)c1ccccc1 (stereo not shown) [Compound 29]	350 nM
CCC(OC(=O)Cc1ccc(OC)cc1)C(=O)Nc1ccc(F)cc1 (stereo not shown) [Compound 30, 1-[(4-fluorophenyl)carbamoyl]propyl 2-(4-methoxyphenyl)acetate]	360 nM
CC(OC(=O)CCC1CCCC1)C(=O)Nc1ccccc1 (stereo not shown) [Compound 31, (2-anilino-1-methyl-2-oxo-ethyl) 3-cyclopentylpropanoate]	370 nM
O=C(Cc1ccc(Cl)cc1)OC(C(=O)Nc1ccccc1)c1ccccc1 (stereo not shown) [Compound 32, (2-anilino-2-oxo-1-phenyl-ethyl) 2-(4-chlorophenyl)acetate]	380 nM
CCC(OC(=O)C(c1ccccc1)c1ccccc1)C(=O)Nc1cc(C)on1 (stereo not shown) [Compound 33]	390 nM
CCC(OC(=O)Cc1ccc(OC)cc1)C(=O)Nc1ccccc1 (stereo not shown) [Compound 34, 1-(phenylcarbamoyl)propyl 2-(4-methoxyphenyl)acetate]	390 nM
COc1ccc(CC(=O)OC(C(=O)Nc2ccc(OC)cc2)c2ccccc2)cc1 (stereo not shown) [Compound 35, [2-(4-methoxyanilino)-2-oxo-1-phenyl-ethyl] 2-(4-methoxyphenyl)acetate]	410 nM
COc1ccc(CC(=O)OC(C(=O)Nc2cc(C)on2)c2ccccc2)cc1 (stereo not shown) [Compound 36, [2-[(5-methylisoxazol-3-yl)amino]-2-oxo-1-phenyl-ethyl] 2-(4-methoxyphenyl)acetate]	430 nM
O=C(CCC1CCCC1)OC(C(=O)NCc1ccccc1)c1ccccc1 (stereo not shown) [Compound 37, [2-(benzylamino)-2-oxo-1-phenyl-ethyl] 3-cyclopentylpropanoate]	460 nM
COCCC(OC(=O)C(c1ccccc1)c1ccccc1)C(=O)Nc1cc(C)on1 (stereo not shown) [Compound 38]	470 nM
CCC(OC(=O)Cc1ccc(Cl)c(Cl)c1)C(=O)Nc1cc(C)on1 (stereo not shown) [Compound 39, 1-[(5-methylisoxazol-3-yl)carbamoyl]propyl 2-(3,4-dichlorophenyl)acetate]	480 nM
COc1ccc(NC(=O)COC(=O)Cc2ccc(Cl)cc2)cc1 [Compound 40]	550 nM
CCC(OC(=O)Cc1ccc(OC)c(OC)c1)C(=O)Nc1cc(C)on1 (stereo not shown) [Compound 41, 1-[(5-methylisoxazol-3-yl)carbamoyl]propyl 2-(3,4-dimethoxyphenyl)acetate]	580 nM
COc1ccc(CC(=O)OC(C)C(=O)Nc2ccc(F)cc2)cc1 (stereo not shown) [Compound 42]	590 nM
CCC(OC(=O)C(c1ccccc1)c1ccccc1)C(=O)Nc1ccc(OC)cc1 (stereo not shown) [Compound 43, 1-[(4-methoxyphenyl)carbamoyl]propyl 2,2-diphenylacetate]	630 nM
CCC(OC(=O)C(c1ccccc1)c1ccccc1)C(=O)Nc1ccc(F)cc1 (stereo not shown) [Compound 44, 1-[(4-fluorophenyl)carbamoyl]propyl 2,2-diphenylacetate]	640 nM
CCC(OC(=O)C(NC(=O)c1ccccc1)c1ccccc1)C(=O)Nc1cc(C)on1 (stereo not shown) [Compound 45]	660 nM
COc1ccc(NC(=O)COC(=O)CCC2CCCC2)cc1 [Compound 46]	690 nM
Cc1cc(NC(=O)C(C)OC(=O)C(c2ccccc2)c2ccccc2)no1 (stereo not shown) [Compound 47, [1-methyl-2-[(5-methylisoxazol-3-yl)amino]-2-oxo-ethyl] 2,2-diphenylacetate]	740 nM
CCC(OC(=O)C(c1ccccc1)c1ccccc1)C(=O)Nc1ccccc1 (stereo not shown) [Compound 48, 1-(phenylcarbamoyl)propyl 2,2-diphenylacetate]	760 nM
Cc1cc(NC(=O)C(OC(=O)C(NC(=O)c2ccccc2)c2ccccc2)c2ccccc2)no1 (stereo not shown) [Compound 49, [2-[(5-methylisoxazol-3-yl)amino]-2-oxo-1-phenyl-ethyl] 2-benzamido-2-phenyl-acetate]	780 nM
O=C(COC(=O)Cc1ccc(Cl)cc1)Nc1ccc(F)cc1 [Compound 50]	790 nM
O=C(COC(=O)CCC1CCCC1)Nc1ccc(F)cc1 [Compound 51]	830 nM
Cc1cc(NC(=O)C(C)OC(=O)C(NC(=O)c2ccccc2)c2ccccc2)no1 (stereo not shown) [Compound 52, [1-methyl-2-[(5-methylisoxazol-3-yl)amino]-2-oxo-ethyl] 2-benzamido-2-phenyl-acetate]	950 nM
CC(OC(=O)C(c1ccccc1)c1ccccc1)C(=O)Nc1ccccc1 (stereo not shown) [Compound 53]	1100 nM

Next, values leading:

IC50	Structure (SMILES)
39 nM	Cc1cc(NC(=O)C(C)OC(=O)Cc2ccc(Cl)cc2)no1 (stereo not shown) [Compound 1, [1-methyl-2-[(5-methylisoxazol-3-yl)amino]-2-oxo-ethyl] 2-(4-chlorophenyl)acetate]
70 nM	CC(OC(=O)Cc1ccc(Cl)cc1)C(=O)Nc1ccc(F)cc1 (stereo not shown) [Compound 2]
80 nM	CCC(OC(=O)Cc1ccc(Cl)cc1)C(=O)Nc1cc(C)on1 (stereo not shown) [Compound 3, 1-[(5-methylisoxazol-3-yl)carbamoyl]propyl 2-(4-chlorophenyl)acetate]
80 nM	COc1ccc(NC(=O)C(C)OC(=O)Cc2ccc(Cl)cc2)cc1 (stereo not shown) [Compound 4, [2-(4-methoxyanilino)-1-methyl-2-oxo-ethyl] 2-(4-chlorophenyl)acetate]
90 nM	CC(OC(=O)Cc1ccc(Cl)cc1)C(=O)Nc1ccccc1 (stereo not shown) [Compound 5]
120 nM	CCC(OC(=O)Cc1ccc(Cl)cc1)C(=O)Nc1ccc(OC)cc1 (stereo not shown) [Compound 6, 1-[(4-methoxyphenyl)carbamoyl]propyl 2-(4-chlorophenyl)acetate]
130 nM	COc1ccc(CC(=O)OC(C)C(=O)Nc2cc(C)on2)cc1 (stereo not shown) [Compound 7, [1-methyl-2-[(5-methylisoxazol-3-yl)amino]-2-oxo-ethyl] 2-(4-methoxyphenyl) acetate]
140 nM	CCC(OC(=O)Cc1ccc(Cl)cc1)C(=O)Nc1ccc(F)cc1 (stereo not shown) [Compound 8, 1-[(4-fluorophenyl)carbamoyl]propyl 2-(4-chlorophenyl)acetate]
150 nM	CCC(OC(=O)Cc1ccc(Cl)cc1)C(=O)Nc1ccccc1 (stereo not shown) [Compound 9, 1-(phenylcarbamoyl)propyl 2-(4-chlorophenyl)acetate]
150 nM	CCC(OC(=O)CCC1CCCC1)C(=O)Nc1ccc(OC)cc1 (stereo not shown) [Compound 11, 1-[(4-methoxyphenyl)carbamoyl]propyl 3-cyclopentylpropanoate]
150 nM	CCC(OC(=O)Cc1ccc(OC)cc1)C(=O)Nc1cc(C)on1 (stereo not shown) [Compound 12, 1-[(5-methylisoxazol-3-yl)carbamoyl]propyl 2-(4-methoxyphenyl) acetate]
170 nM	COc1ccc(NC(=O)C(OC(=O)Cc2ccc(Cl)cc2)c2ccccc2)cc1 (stereo not shown) [Compound 13, [2-(4-methoxyanilino)-2-oxo-1-phenyl-ethyl] 2-(4-chlorophenyl)acetate]
180 nM	Cc1cc(NC(=O)C(C)OC(=O)CCC2CCCC2)no1 (stereo not shown) [Compound 14, [1-methyl-2-[(5-methylisoxazol-3-yl)amino]-2-oxo-ethyl] 3-cyclopentylpropanoate]
180 nM	COc1ccc(CC(=O)OC(C)C(=O)Nc2ccc(OC)cc2)cc1 (stereo not shown) [Compound 15, [2-(4-methoxyanilino)-1-methyl-2-oxo-ethyl] 2-(4-methoxyphenyl)acetate]
190 nM	CCC(OC(=O)CCC1CCCC1)C(=O)Nc1cc(C)on1 (stereo not shown) [Compound 16, 1-[(5-methylisoxazol-3-yl)carbamoyl]propyl 3-cyclopentylpropanoate]
190 nM	Cc1cc(NC(=O)C(OC(=O)Cc2ccc(Cl)cc2)c2ccccc2)no1 (stereo not shown) [Compound 17, [2-[(5-methylisoxazol-3-yl)amino]-2-oxo-1-phenyl-ethyl] 2-(4-chlorophenyl)acetate]
220 nM	CCCC(OC(=O)C(c1ccccc1)c1ccccc1)C(=O)Nc1cc(C)on1 (stereo not shown) [Compound 18]
230 nM	COc1ccc(NC(=O)C(OC(=O)CCC2CCCC2)c2ccccc2)cc1 (stereo not shown) [Compound 19, [2-(4-methoxyanilino)-2-oxo-1-phenyl-ethyl] 3-cyclopentylpropanoate]
230 nM	Cc1cc(NC(=O)C(OC(=O)CCC2CCCC2)c2ccccc2)no1 (stereo not shown) [Compound 20, [2-[(5-methylisoxazol-3-yl)amino]-2-oxo-1-phenyl-ethyl] 3-cyclopentylpropanoate]
260 nM	COc1ccc(CC(=O)OC(C)C(=O)Nc2ccccc2)cc1 (stereo not shown) [Compound 21]
260 nM	CC(OC(=O)CCC1CCCC1)C(=O)Nc1ccc(F)cc1 (stereo not shown) [Compound 22]
270 nM	CCC(OC(=O)Cc1ccc(OC)cc1)C(=O)Nc1cc(C)on1 (stereo not shown) [Compound 23, 1-[(5-methylisoxazol-3-yl)carbamoyl]propyl 2-(4-methoxyphenyl)acetate]
280 nM	CCC(OC(=O)Cc1ccc(OC)cc1)C(=O)Nc1ccc(OC)cc1 (stereo not shown) [Compound 24, 1-[(4-methoxyphenyl)carbamoyl]propyl 2-(4-methoxyphenyl)acetate]
310 nM	CCC(OC(=O)CCC1CCCC1)C(=O)Nc1ccc(F)cc1 (stereo not shown) [Compound 25, 1-[(4-fluorophenyl)carbamoyl]propyl 3-cyclopentylpropanoate]
320 nM	CCC(OC(=O)Cc1ccc2c(c1)OCO2)C(=O)Nc1cc(C)on1 (stereo not shown) [Compound 26, 1-[(5-methylisoxazol-3-yl)carbamoyl]propyl 2-(1,3-benzodioxol-5-yl)acetate]
330 nM	CCCCC(OC(=O)C(c1ccccc1)c1ccccc1)C(=O)Nc1cc(C)on1 (stereo not shown) [Compound 27]
340 nM	CC[C@H](OC(=O)C(c1ccccc1)c1ccccc1)C(=O)Nc1cc(C)on1 [Compound 28]
